Where a name gives a salt, the structure may show the parent alone.
What was measured:
male ICR mice = assay: Mouse tail suspension model; assay type: in vivo; conditions: immobility time
Description: 110 male ICR mice were accommodated in the experimental environment for 3 days prior to the test, with 10 animals reserved for future use.
According to the experimental design, the mice were randomly grouped according to their body weight at one day before administration.
The time of initiation of administration was defined as 0 min.
The 2 cm tail end of the mouse was attached to a horizontal metal stick so that the mouse was suspended and the immobility time period of the mouse was observed and recorded over a period of 6 min. The last 4 min of immobility time period was recorded by a timer and was used for data analysis.
Excel software was used to collect data. Data were analyzed using Prism (Graphpad software, Inc.) software, in which variance between two groups was analyzed using the t-test method, and one-way ANOVA with additional Dunnett's multiple comparison test was performed among each animal group. p<0.05 is considered as having a significant difference.

[1] = Pharmacokinetic experiments in dogs; conditions: 14 mg/kg single gavage, Day1, analyte deDM in plasma
Description: Reagents: Sodium chloride injection, EDTA-K2, acetonitrile and formic acid were commercially available.
Instrument: AB SCIEX 5500 triple quadrupole mass spectrometer.
18 Beagle dogs, half male and half female, weighing 6 kg-10 kg, were purchased from Jiangsu Yadong Experimental Animal Research Institute Co., Ltd.
After single gavage administration in dogs, about 1 mL of blood was collected with a scalp needle from a vein in the forelimb or hindlimb at 0 min (before administration), 5 min, 15 min, 30 min, 1 h, 2 h, 4 h, 8 h and 24 h in a blood collection tube containing EDTA-K2 anticoagulant and then centrifuged at 4000 rpm for 10 min to separate the plasma which was stored at ≤- 65°C for testing.
The standard curve concentrations of dextromethorphan in plasma were 1 ng/mL, 2 ng/mL, 10 ng/mL, 50 ng/mL, 200 ng/mL, 400 ng/mL, 600 ng/mL and 1000 ng/mL and QC concentrations were 3 ng/mL, 30 ng/mL, 500 ng/mL and 800 ng/mL.

male C57BL/6J mice = assay: Relieving a cough in mice, concentrated ammonia steam (Example 5); assay type: in vivo; conditions: 60 min
Description: Ammonium Hydroxide, ACS Reagent, 28.0-30.0% NH3, AI LAN (Shanghai) Chemical Technology Co., Ltd., batch no. CEC1070004. Ultrasonic Nebulizer WH-2000, Guangdong Yuehua Medical Equipment Factory Co., Ltd.
88 male C57BL/6J mice, weighing 20-22 g, were purchased from Beijing Vital River Laboratory Animal Technology Co., Ltd.
Mice in each group were administered with 1 dose of the corresponding experimental drugs to be tested in a volume of 10 ml/kg. After 60 min of administration, the mice were placed in an inverted 600 ml beaker filled with concentrated ammonia saturated steam and immediately timed for 10 s, and then the mice were removed and placed in another inverted 600 ml beaker to observe the coughing of the mice and recorded the total coughs within 5 min.
All experimental data are expressed as means. Statistical analysis was carried out using Graphad Prism 5 software. One-way ANOVA test was used for comparison between groups. SNK was used for comparison between groups with equal variance. Dunnett's T3 was used for comparison between groups with unequal variance. P < 0.05 indicated statistical significance.

Question: For `CC(NC(C)(C)C)C(=O)c1cccc(Cl)c1` (stereo not drawn) [Bup, bupropion hydrochloride, reference compound], which Inhibition rate (male ICR mice; 50 mg/kg oral) is on record?
Answer: The Inhibition rate was 56.00%^∗∗.

Question: For “deuterated dextromethorphan hydrobromide monohydrate [deDM]”, which AUClast ([1]; Female) is on record?
Answer: Its AUClast is 153 h^∗ng/ml.

Question: What about the Cmax ([1]; Female) of the same compound?
Answer: The Cmax was 60 ng/mL.

Question: What about the AUClast ([1]; Male) of the same compound?
Answer: The AUClast was 383 h^∗ng/ml.

Question: What about the Cmax ([1]; Male) of the same compound?
Answer: Its Cmax is 157 ng/mL.

Question: And the Inhibition rate (male ICR mice; 10 mg/kg oral)?
Answer: Its Inhibition rate is 5.0%.

Question: And the Inhibition rate (male ICR mice; 12 mg/kg oral)?
Answer: The Inhibition rate was 2.1%.

Question: What about the Inhibition rate (male ICR mice; 15 mg/kg oral) of the same compound?
Answer: The Inhibition rate was 5.9%.

Question: What about the Inhibition rate (male ICR mice; 18 mg/kg oral) of the same compound?
Answer: Its Inhibition rate is 4.1%.

Question: With `CC(NC(C)(C)C)C(=O)c1cccc(Cl)c1` (stereo not drawn) [Bupropion, 1-(3-chlorophenyl)-2-[(1,1-dimethylethyl)amino]-1-propanone, reference compound] as the compound, how does the Cough inhibition rate% (male C57BL/6J mice; 30 mg/kg) read?
Answer: Its Cough inhibition rate% is 9.1%.

Question: Which Cough inhibition rate% (male C57BL/6J mice; 3 mg/kg) does the source give for `[2H]C([2H])([2H])Oc1ccc2c(c1)[C@]13CCCC[C@@H]1[C@H](C2)N(C([2H])([2H])[2H])CC3` [Deuterated dextromethorphan] here?
Answer: Its Cough inhibition rate% is 11.6%.

Question: What about the Cough inhibition rate% (male C57BL/6J mice; 12 mg/kg) of the same compound?
Answer: The Cough inhibition rate% was 22.5%.

Source: patent EP4183391A1, “PHARMACEUTICAL COMPOSITION AND USE THEREOF” (Shenzhen Salubris Pharmaceuticals Co., Ltd., priority 2020, dated 2022)
